Values quoted from earlier work, collected in patent publication US11986533B2, “Macromonomers and bottle brush polymers for delivery of biological agents” (Regents of the University of Minnesota, priority 2021, dated 2024).

In the case of `O=C1NC(=O)C(c2ccccc2)(c2ccccc2)N1` [phenytoin], the “log P” value is given as 2.14.
